What was measured:
SORVU (shattercane) [1] = assay: Pre-plant incorporated (PPI) herbicidal activity, warm season; assay type: in vivo, Sorghum vulgare; settings: PPI application
Protocol: (§1) In another set of tests, the pre-plant incorporated (PPI) activity of compounds of this invention was evaluated on the same species as for the pre-emergence tests described above. In the PPI tests the following procedure, designed to simulate PPI application, was used.
(§2) A pre-prepared topsoil mixture (described above) was placed in a pot and compacted to a depth of 1.0 to 1.25 cm from the top of the pot. Seeds of each of several monocotyledonous and dicotyledonous annual plant species were placed on top of the soil. A sufficient quantity of soil to cover the seeds and level fill the pot was weighed into an open container. A known amount of the test compound was dissolved or suspended in an organic solvent and applied by spraying to this cover soil. The cover soil was thoroughly mixed to distribute the test compound throughout the cover soil, and was then applied as a cover layer over the seeds. Untreated soil was used as a cover layer for control pots. After treatment the plants were placed in a greenhouse where they received 0.64 cm of overhead irrigation. All subsequent watering consisted of a light overhead mist and/or subirrigation as needed for germination and growth. Tables 9 and 10 below relate to warm season plant species which were placed after pre-emergence treatment in a greenhouse with a 30/21° C. day/night temperature regime. Tables 11 and 12 below relates to cool season plant species placed after pre-emergence treatment in a greenhouse or growth chamber with an 18/13° C. day/night temperature regime. Only the compounds of Examples 1, 6, 8, 11, 13 and 15-20 were included in PPI tests.
(§3) Approximately 14 days after planting and treating, the plants were observed and herbicidal efficacy recorded as percent inhibition by comparison with untreated plants.

SOLNI (black nightshade) = assay: as above; assay type: in vivo, Solanum nigrum; settings: PPI application
Protocol: as §1, §2, §3

[2] = system: PANMI (wild proso millet); assay: as above; assay type: in vivo, Panicum miliaceum; settings: PPI application
Protocol: as §1, §2, §3

[3] = system: VERPE (creeping speedwell); assay: Pre-emergence herbicidal activity, cool season; assay type: in vivo, Veronica persicaria; settings: lowest tested rate with 80% or greater inhibition; rates 300, 100, 30, 10 g/ha; about 14 days
Procedure, shortened: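 GR80 values derive from percent inhibition relative to untreated plants, read roughly 14 days after sowing and pre-emergence soil-surface treatment (compound in 50:50 acetone/water; rates typically 10, 30, 100, 300 g/ha). Warm-season weeds grew at 30/21° C day/night, cool-season ones at 18/13° C; an asterisk marks activity without reaching 80% at the highest rate.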

[4] = system: CHEAL (common lambsquarters); assay: Pre-plant incorporated (PPI) herbicidal activity, warm season; assay type: in vivo, Chenopodium album; settings: PPI application
Protocol: as §1, §2, §3

corn (ZEAMX) = assay: Selectivity test, PPI, warm season crop; assay type: in vivo, Zea mays; settings: PPI application
Protocol: as §2, §3
Additional pre-emergence and PPI tests were conducted by the procedures described above, on warm and cool season weed species in the presence of crop species, to assess herbicidal selectivity. Crop species included in warm season tests were corn (Zea mays, ZEAMX), rice (Oryza sativa, ORYSA) and soybean (Glycine max, GLYMX). Crop species included in cool season tests were wheat (Triticum aestivum, TRZAW), barley (Hordeunm vulgare, HORVX) and oilseed rape (Brassica napus, BRSNS).
Tables 15 and 16 relate to pre-emergence and PPI tests respectively on warm season species. Table 17 relates to pre-emergence tests on cool season species.

SORVU (shattercane) [5] = assay: Pre-emergence herbicidal activity, warm season; assay type: in vivo, Sorghum vulgare; settings: GR80 = lowest tested rate (300, 100, 30, 10 g/ha) with 80% or greater inhibition; approx. 14 days after treating; 30/21° C.
Procedure, shortened: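 Seeds sown in sterilised fertilised topsoil received surface-applied compound in 50:50 acetone/water, typically at 300, 100, 30 and 10 g/ha, then greenhouse-grown at 30/21° C (warm-season species) or 18/13° C (cool-season species). Percent inhibition versus untreated plants was scored at about 14 days, giving GR80; an asterisk marks activity short of 80% at the top rate.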

CCN(CC)C(=O)n1cnc(S(=O)(=O)C(F)(F)SCc2ccccc2)n1 [Example 10]
Percent inhibition SORVU (SORVU (shattercane) [1]; 10 g/ha): 0%
Percent inhibition SORVU (SORVU (shattercane) [1]; 30 g/ha): 0%
Percent inhibition SORVU (SORVU (shattercane) [1]; 100 g/ha): 20%
Percent inhibition SORVU (SORVU (shattercane) [1]; 300 g/ha): 95%
Percent inhibition SORVU (SORVU (shattercane) [1]; 900 g/ha): 100%
Percent inhibition SOLNI (SOLNI (black nightshade); 10 g/ha): 20%
Percent inhibition SOLNI (SOLNI (black nightshade); 30 g/ha): 60%
Percent inhibition SOLNI (SOLNI (black nightshade); 100 g/ha): 100%
Percent inhibition SOLNI (SOLNI (black nightshade); 300 g/ha): 80%
Percent inhibition SOLNI (SOLNI (black nightshade); 900 g/ha): 100%
Percent inhibition PANMI ([2]; 10 g/ha): 0%
Percent inhibition PANMI ([2]; 30 g/ha): 0%
Percent inhibition PANMI ([2]; 100 g/ha): 80%
Percent inhibition PANMI ([2]; 300 g/ha): 99%
Percent inhibition PANMI ([2]; 900 g/ha): 100%
Pre-emergence activity GR80, VERPE [3]: 100 g/ha
Percent inhibition CHEAL ([4]; 10 g/ha): 30%
Percent inhibition CHEAL ([4]; 30 g/ha): 60%
Percent inhibition CHEAL ([4]; 100 g/ha): 60%
Percent inhibition CHEAL ([4]; 300 g/ha): 100%
Percent inhibition CHEAL ([4]; 900 g/ha): 100%
Percent inhibition ZEAMX (corn (ZEAMX); 10 g/ha): 0%
Percent inhibition ZEAMX (corn (ZEAMX); 30 g/ha): 0%
Percent inhibition ZEAMX (corn (ZEAMX); 100 g/ha): 0%
Percent inhibition ZEAMX (corn (ZEAMX); 300 g/ha): 10%
Percent inhibition ZEAMX (corn (ZEAMX); 900 g/ha): 40%

CCN(CC)C(=O)n1cnc(S(=O)(=O)C(F)(F)Cl)n1 [Example 3]
Percent inhibition SORVU (SORVU (shattercane) [1]; 30 g/ha): 70%
Percent inhibition SORVU (SORVU (shattercane) [1]; 100 g/ha): 95%
Percent inhibition SORVU (SORVU (shattercane) [1]; 300 g/ha): 100%
Percent inhibition SORVU (SORVU (shattercane) [1]; 900 g/ha): 100%
Percent inhibition SOLNI (SOLNI (black nightshade); 30 g/ha): 70%
Percent inhibition SOLNI (SOLNI (black nightshade); 100 g/ha): 100%
Percent inhibition SOLNI (SOLNI (black nightshade); 300 g/ha): 100%
Percent inhibition SOLNI (SOLNI (black nightshade); 900 g/ha): 100%
Percent inhibition PANMI ([2]; 30 g/ha): 100%
Percent inhibition PANMI ([2]; 100 g/ha): 100%
Percent inhibition PANMI ([2]; 300 g/ha): 100%
Percent inhibition PANMI ([2]; 900 g/ha): 100%
Pre-emergence activity GR80, VERPE [3]: 100 g/ha
Percent inhibition CHEAL ([4]; 30 g/ha): 80%
Percent inhibition CHEAL ([4]; 100 g/ha): 99%
Percent inhibition CHEAL ([4]; 300 g/ha): 100%
Percent inhibition CHEAL ([4]; 900 g/ha): 100%
Pre-emergence activity (GR80) SORVU (SORVU (shattercane) [5]): 100 g/ha
Percent inhibition ZEAMX (corn (ZEAMX); 30 g/ha): 5%
Percent inhibition ZEAMX (corn (ZEAMX); 100 g/ha): 10%
Percent inhibition ZEAMX (corn (ZEAMX); 300 g/ha): 30%
Percent inhibition ZEAMX (corn (ZEAMX); 900 g/ha): 55%

CCN(CC)C(=O)n1cnc(S(=O)(=O)C(F)(F)SC)n1 [Example 9]
Percent inhibition SORVU (SORVU (shattercane) [1]; 30 g/ha): 60%
Percent inhibition SORVU (SORVU (shattercane) [1]; 100 g/ha): 70%
Percent inhibition SORVU (SORVU (shattercane) [1]; 300 g/ha): 100%
Percent inhibition SORVU (SORVU (shattercane) [1]; 900 g/ha): 100%
Percent inhibition SOLNI (SOLNI (black nightshade); 30 g/ha): 95%
Percent inhibition SOLNI (SOLNI (black nightshade); 100 g/ha): 100%
Percent inhibition SOLNI (SOLNI (black nightshade); 300 g/ha): 100%
Percent inhibition SOLNI (SOLNI (black nightshade); 900 g/ha): 99%
Percent inhibition PANMI ([2]; 30 g/ha): 60%
Percent inhibition PANMI ([2]; 100 g/ha): 80%
Percent inhibition PANMI ([2]; 300 g/ha): 100%
Percent inhibition PANMI ([2]; 900 g/ha): 100%
Pre-emergence activity GR80, VERPE [3]: 100 g/ha
Percent inhibition CHEAL ([4]; 30 g/ha): 95%
Percent inhibition CHEAL ([4]; 100 g/ha): 100%
Percent inhibition CHEAL ([4]; 300 g/ha): 100%
Percent inhibition CHEAL ([4]; 900 g/ha): 100%
Pre-emergence activity (GR80) SORVU (SORVU (shattercane) [5]): 300 g/ha
Percent inhibition ZEAMX (corn (ZEAMX); 30 g/ha): 0%
Percent inhibition ZEAMX (corn (ZEAMX); 100 g/ha): 10%
Percent inhibition ZEAMX (corn (ZEAMX); 300 g/ha): 90%
Percent inhibition ZEAMX (corn (ZEAMX); 900 g/ha): 99%
